Reference: patent publication US20250114345A1, “COMPOUNDS AND COMPOSITIONS AS CBP/P300 DEGRADERS AND USES THEREOF” (Oncopia Therapeutics, Inc. d/b/a/ SK Life Science Labs, priority 2023, published 2025)

How the values were obtained:
[1] = target: T1, p300 (Homo sapiens, UniProt Q09472); assay: P300 degradation, HiBit technology in A549 P300 HiBit cells (2 h); assay type: cell-based; details: 2 hrs post treatment; for Dmax: A549, A549 P300 HiBit cells; for DC50: A549 P300 HiBit cells
T1 construct: host or cells: A549 P300 HiBit cells
T1 sequence (Q09472 whole entry): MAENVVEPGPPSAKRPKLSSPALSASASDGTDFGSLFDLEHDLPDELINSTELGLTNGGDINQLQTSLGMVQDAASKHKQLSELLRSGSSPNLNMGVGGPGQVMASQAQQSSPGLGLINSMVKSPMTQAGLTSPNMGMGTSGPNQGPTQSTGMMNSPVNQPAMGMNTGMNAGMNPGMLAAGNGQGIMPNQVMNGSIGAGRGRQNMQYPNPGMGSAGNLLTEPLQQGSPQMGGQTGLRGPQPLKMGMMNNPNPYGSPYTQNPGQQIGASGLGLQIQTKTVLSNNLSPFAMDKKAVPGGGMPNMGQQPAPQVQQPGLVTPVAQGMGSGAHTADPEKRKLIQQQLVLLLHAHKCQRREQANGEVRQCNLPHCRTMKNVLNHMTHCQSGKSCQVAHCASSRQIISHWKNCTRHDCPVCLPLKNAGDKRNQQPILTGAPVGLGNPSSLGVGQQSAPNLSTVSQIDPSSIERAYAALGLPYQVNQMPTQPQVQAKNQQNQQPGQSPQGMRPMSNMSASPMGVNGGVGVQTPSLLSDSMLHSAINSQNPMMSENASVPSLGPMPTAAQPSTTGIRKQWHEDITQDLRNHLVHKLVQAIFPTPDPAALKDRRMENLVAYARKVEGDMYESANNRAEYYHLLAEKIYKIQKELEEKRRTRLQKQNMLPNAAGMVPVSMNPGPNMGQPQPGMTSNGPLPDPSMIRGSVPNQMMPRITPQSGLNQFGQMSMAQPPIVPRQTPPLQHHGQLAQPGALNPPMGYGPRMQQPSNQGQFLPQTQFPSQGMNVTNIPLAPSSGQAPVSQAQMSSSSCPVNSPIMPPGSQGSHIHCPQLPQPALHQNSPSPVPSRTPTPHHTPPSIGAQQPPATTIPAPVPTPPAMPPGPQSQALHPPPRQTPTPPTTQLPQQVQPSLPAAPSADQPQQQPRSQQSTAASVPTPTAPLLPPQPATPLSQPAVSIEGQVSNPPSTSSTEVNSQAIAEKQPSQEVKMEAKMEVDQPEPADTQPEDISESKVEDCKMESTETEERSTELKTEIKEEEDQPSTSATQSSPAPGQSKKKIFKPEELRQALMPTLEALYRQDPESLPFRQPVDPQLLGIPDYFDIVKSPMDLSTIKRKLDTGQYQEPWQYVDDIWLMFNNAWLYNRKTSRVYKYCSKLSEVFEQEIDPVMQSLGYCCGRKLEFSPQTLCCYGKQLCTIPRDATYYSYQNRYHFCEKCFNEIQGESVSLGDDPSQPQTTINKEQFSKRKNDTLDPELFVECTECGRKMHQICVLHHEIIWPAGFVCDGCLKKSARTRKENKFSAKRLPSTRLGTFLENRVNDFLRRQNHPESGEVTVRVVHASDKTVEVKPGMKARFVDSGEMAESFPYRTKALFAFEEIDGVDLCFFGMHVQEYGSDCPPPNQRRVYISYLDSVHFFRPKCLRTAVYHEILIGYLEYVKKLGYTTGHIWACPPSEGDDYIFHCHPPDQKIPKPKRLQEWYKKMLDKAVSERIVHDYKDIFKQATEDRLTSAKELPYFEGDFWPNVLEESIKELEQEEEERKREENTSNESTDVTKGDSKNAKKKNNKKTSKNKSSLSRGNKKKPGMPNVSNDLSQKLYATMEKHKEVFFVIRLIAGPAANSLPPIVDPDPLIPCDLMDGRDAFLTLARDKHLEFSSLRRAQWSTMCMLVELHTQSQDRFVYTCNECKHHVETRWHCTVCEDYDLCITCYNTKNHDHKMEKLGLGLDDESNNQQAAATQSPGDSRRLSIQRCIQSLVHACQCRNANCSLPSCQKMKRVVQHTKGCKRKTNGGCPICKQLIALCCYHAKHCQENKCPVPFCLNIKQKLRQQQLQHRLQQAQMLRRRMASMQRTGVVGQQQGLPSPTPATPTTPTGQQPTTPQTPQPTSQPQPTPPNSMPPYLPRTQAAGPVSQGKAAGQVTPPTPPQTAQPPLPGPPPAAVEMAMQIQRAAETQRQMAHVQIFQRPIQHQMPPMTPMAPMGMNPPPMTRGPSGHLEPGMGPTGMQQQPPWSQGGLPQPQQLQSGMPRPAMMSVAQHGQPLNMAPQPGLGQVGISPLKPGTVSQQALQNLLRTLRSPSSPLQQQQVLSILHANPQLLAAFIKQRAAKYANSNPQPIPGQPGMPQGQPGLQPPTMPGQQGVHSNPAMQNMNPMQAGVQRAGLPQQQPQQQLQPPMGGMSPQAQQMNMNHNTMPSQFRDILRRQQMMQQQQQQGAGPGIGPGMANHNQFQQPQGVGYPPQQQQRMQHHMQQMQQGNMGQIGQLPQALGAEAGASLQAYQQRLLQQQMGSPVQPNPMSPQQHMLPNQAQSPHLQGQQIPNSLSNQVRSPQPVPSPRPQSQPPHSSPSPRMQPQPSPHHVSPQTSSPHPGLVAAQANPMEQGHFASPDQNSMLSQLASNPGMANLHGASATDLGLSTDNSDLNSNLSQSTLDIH
Method in brief: (§1)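 HiBiT knock-in A549 cells received compound in serial dilution at 37 °C under 5% CO2. Remaining tagged protein was quantified by lytic HiBiT luminescence after 10 min shaking at room temperature, yielding potency and maximal degradation.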

[2] = target: T2, CBP (Homo sapiens, UniProt Q92793); assay: CBP degradation, HiBit technology in A549 CBP HiBit cells (24 h); assay type: cell-based; details: 24 hrs post treatment
T2 construct: host or cells: A549 CBP HiBit cells
T2 sequence (Q92793 whole entry): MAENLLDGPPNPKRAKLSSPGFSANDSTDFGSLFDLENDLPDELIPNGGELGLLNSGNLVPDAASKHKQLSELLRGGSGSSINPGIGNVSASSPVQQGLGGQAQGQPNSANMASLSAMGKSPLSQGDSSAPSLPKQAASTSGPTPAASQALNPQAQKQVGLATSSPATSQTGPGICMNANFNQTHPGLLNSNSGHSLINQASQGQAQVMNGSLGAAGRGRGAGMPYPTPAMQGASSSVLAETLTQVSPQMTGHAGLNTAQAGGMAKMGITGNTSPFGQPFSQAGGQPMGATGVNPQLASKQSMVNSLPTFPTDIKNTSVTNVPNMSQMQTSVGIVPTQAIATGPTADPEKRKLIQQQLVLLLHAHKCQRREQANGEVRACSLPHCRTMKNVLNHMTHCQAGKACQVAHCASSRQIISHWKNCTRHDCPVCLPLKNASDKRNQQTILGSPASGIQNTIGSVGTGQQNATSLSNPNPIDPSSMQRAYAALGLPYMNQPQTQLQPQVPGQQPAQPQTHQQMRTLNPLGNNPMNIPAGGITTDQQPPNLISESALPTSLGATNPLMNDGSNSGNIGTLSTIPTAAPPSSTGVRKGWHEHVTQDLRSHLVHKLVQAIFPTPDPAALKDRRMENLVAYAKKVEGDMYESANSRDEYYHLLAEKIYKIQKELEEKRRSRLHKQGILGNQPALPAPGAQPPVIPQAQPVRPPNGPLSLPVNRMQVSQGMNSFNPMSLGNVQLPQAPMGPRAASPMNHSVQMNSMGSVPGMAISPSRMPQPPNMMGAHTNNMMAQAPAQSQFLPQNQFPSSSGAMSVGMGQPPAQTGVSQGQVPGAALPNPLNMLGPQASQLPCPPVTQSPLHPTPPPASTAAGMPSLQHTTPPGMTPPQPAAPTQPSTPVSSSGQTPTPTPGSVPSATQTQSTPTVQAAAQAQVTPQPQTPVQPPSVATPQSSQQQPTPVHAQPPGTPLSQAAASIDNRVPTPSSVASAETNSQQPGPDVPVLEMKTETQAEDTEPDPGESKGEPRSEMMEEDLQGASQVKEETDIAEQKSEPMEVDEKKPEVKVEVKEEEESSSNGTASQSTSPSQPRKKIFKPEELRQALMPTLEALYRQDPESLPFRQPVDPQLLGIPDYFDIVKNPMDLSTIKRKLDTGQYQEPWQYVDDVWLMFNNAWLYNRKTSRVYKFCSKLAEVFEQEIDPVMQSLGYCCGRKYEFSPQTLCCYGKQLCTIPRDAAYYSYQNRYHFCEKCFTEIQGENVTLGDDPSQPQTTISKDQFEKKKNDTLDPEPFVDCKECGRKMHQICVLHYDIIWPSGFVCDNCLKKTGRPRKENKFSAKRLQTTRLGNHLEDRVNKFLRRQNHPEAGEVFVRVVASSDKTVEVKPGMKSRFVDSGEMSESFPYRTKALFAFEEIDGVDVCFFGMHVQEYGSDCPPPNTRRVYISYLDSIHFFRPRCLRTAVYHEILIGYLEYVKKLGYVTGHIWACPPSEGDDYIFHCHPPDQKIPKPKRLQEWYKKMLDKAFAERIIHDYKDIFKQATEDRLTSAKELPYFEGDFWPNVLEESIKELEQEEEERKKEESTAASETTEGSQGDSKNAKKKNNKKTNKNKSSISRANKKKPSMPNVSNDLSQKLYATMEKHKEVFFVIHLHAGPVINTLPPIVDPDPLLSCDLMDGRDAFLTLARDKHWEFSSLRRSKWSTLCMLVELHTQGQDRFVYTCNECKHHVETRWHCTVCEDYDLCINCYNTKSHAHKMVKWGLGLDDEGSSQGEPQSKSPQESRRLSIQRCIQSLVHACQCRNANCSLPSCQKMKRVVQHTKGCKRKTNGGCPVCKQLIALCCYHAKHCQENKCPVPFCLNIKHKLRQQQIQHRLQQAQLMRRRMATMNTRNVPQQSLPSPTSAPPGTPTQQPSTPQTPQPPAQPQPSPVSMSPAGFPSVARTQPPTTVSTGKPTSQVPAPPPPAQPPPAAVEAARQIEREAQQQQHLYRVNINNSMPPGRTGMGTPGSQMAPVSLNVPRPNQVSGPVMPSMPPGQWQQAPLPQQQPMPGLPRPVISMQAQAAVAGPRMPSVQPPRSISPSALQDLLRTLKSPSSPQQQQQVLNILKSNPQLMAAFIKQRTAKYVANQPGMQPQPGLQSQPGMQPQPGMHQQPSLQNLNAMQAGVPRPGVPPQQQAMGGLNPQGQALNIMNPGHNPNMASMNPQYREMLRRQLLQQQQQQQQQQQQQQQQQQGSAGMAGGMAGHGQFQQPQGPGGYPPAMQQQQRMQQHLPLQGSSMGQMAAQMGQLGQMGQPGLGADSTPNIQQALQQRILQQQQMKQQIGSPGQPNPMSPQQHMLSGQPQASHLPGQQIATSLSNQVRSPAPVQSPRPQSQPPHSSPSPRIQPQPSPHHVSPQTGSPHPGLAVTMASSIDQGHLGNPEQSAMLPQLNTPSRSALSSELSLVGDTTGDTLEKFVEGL
Method in brief: as §1

SMILES	Dmax [1] [%]	DC50 [1] [nM]	DC50 [2] [nM]	Dmax [2] [%]
Cn1c(=O)n(C)c2cc(N3CCOc4nc(-c5ccc(C(=O)NCC#Cc6cc7cccc(C8CCC(=O)NC8=O)c7o6)nc5)ncc43)ccc21 (stereo not drawn) [Example A247, 5-(5-(1,3-dimethyl-2-oxo-2,3-dihydro-1H-benzo[d]imidazol-5-yl)-6,7-dihydro-5H-pyrimido[4,5-b][1,4]oxazin-2-yl)-N-(3-(7-(2,6-dioxopiperidin-3-yl)benzofuran-2-yl)prop-2-yn-1-yl) picolinamide]	20 to 39	10 to 99	> 1000	< 20
Cc1oc2ccc(C#CCNC(=O)c3ccc(-c4cc5cccc(-c6cc(C(C)C)c7c(c6)n(C)c(=O)n7C)c5cn4)cn3)cc2c1C1CCC(=O)NC1=O (stereo not drawn) [Example A248, N-(3-(3-(2,6-dioxo-piperidin-3-yl)-2-methylbenzofuran-5-yl)prop-2-yn-1-yl)-5-(8-(7-isopropyl-1,3-dimethyl-2-oxo-2,3-dihydro-1H-benzo [d]imidazol-5-yl)isoquinolin-3-yl) picolinamide]	> 80	10 to 99	> 1000	< 20
Cc1cc(-c2ncc3c(n2)OCCN3c2ccc3c(c2)n(C)c(=O)n3C)cnc1C(=O)NCC#Cc1cc2ccnc(C3CCC(=O)NC3=O)c2o1 (stereo not drawn) [Example A251, 5-(5-(1,3-dimethyl-2-oxo-2,3-dihydro-1H-benzo[d]imidazol-5-yl)-6,7-dihydro-5H-pyrimido[4,5-b][1,4]oxazin-2-yl)-N-(3-(7-(2,6-dioxopiperidin-3-yl)furo[2,3-c]pyridin-2-yl)prop-2-yn-1-yl)-3-methylpicolinamide]	60 to 79	10 to 99	> 1000	< 20
CC(C)c1cc(-c2cccc3cc(-c4ccc(C(=O)NCC#Cc5cc(F)c6occ(C7CCC(=O)NC7=O)c6c5)nc4)ncc23)cc2c1n(C)c(=O)n2C (stereo not drawn) [Example A254, N-(3-(3-(2,6-dioxo-piperidin-3-yl)-7-fluorobenzofuran-5-yl)prop-2-yn-1-yl)-5-(8-(7-isopropyl-1,3-dimethyl-2-oxo-2,3-dihydro-1H-benzo [d]imidazol-5-yl)isoquinolin-3-yl)picolinamide]	> 80	1 to 9.9	> 1000	< 20
Cn1c(=O)n(C)c2cc(-c3cccc4cc(-c5ccc(C(=O)NCC#Cc6ccc7cnn(C8CCC(=O)NC8=O)c7c6)nc5)ncc34)ccc21 (stereo not drawn) [Example A255, 5-(8-(1,3-dimethyl-2-oxo-2,3-dihydro-1H-benzo[d]imidazol-5-yl)isoquinolin-3-yl)-N-(3-(1-(2,6-dioxo-piperidin-3-yl)-1H-indazol-6-yl)prop-2-yn-1-yl)picolinamide]	> 80	1 to 9.9	> 1000	< 20
Cn1c(=O)n(C)c2c(N3CCC(C)(O)CC3)nc(-c3cccc4cc(-c5ccc(C(=O)NCC#Cc6cc7c(C8CCC(=O)NC8=O)cccc7o6)nc5)ncc34)cc21 (stereo not drawn) [Example A258, N-(3-(4-(2,6-dioxo-piperidin-3-yl)benzofuran-2-yl)prop-2-yn-1-yl)-5-(8-(4-(4-hydroxy-4-methylpiperidin-1-yl)-1,3-dimethyl-2-oxo-2,3-dihydro-1H-imidazo[4,5-c]pyridin-6-yl)isoquinolin-3-yl)picolinamide]	> 80	< 1	> 1000	< 20
Cn1c(=O)n(C)c2cc(C3=CC(C)(C)Oc4cc(-c5ccc(C(=O)NCC#Cc6cc7c(C8CCC(=O)NC8=O)cccc7o6)nc5)ncc43)ccc21 (stereo not drawn) [Example A259, 5-(4-(1,3-dimethyl-2-oxo-2,3-dihydro-1H-benzo[d]imidazol-5-yl)-2,2-dimethyl-2H-pyrano[3,2-c]pyridin-7-yl)-N-(3-(4-(2,6-dioxopiperidin-3-yl)benzofuran-2-yl)prop-2-yn-1-yl)picolinamide]	> 80	1 to 9.9	> 1000	< 20
CCn1c(=O)n(C)c2c(N3CCOCC3)nc(-c3cccc4cc(-c5ccc(C(=O)NCC#Cc6cc7c(C8CCC(=O)NC8=O)cccc7o6)nc5)ncc34)cc21 (stereo not drawn) [Example A260, N-(3-(4-(2,6-dioxo-piperidin-3-yl)benzofuran-2-yl)prop-2-yn-1-yl)-5-(8-(1-ethyl-3-methyl-4-morpholino-2-oxo-2,3-dihydro-1H-imidazo[4,5-c]pyridin-6-yl)isoquinolin-3-yl)picolinamide]	> 80	< 1	> 1000	< 20
Cn1c(=O)n(C)c2c(C3CC3)cc(-c3cccc4cc(-c5ccc(C(=O)NCC#Cc6cc7c(C8CCC(=O)NC8=O)cccc7o6)nc5)ncc34)cc21 (stereo not drawn) [Example A261, 5-(8-(7-cyclopropyl-1,3-dimethyl-2-oxo-2,3-dihydro-1H-benzo[d]imidazol-5-yl)isoquinolin-3-yl)-N-(3-(4-(2,6-dioxopiperidin-3-yl)benzofuran-2-yl)prop-2-yn-1-yl)picolinamide]	> 80	1 to 9.9	> 1000	< 20
Cn1c(=O)n(C)c2cc(C3=CC(C)(C)Oc4cc(-c5ccc(C(=O)NCC#Cc6ccc7occ(C8CCC(=O)NC8=O)c7c6)nc5)ncc43)ccc21 (stereo not drawn) [Example A263, 5-(4-(1,3-dimethyl-2-oxo-2,3-dihydro-1H-benzo[d]imidazol-5-yl)-2,2-dimethyl-2H-pyrano[3,2-c]pyridin-7-yl)-N-(3-(3-(2,6-dioxopiperidin-3-yl)benzofuran-5-yl)prop-2-yn-1-yl)picolinamide]	> 80	1 to 9.9	> 1000	< 20
Cc1cc(-c2cc3cccc(-c4cc(C(C)C)c5c(c4)n(C)c(=O)n5C)c3cn2)cnc1C(=O)NCC#Cc1ccc2c(c1)c(C1CCC(=O)NC1=O)nn2C (stereo not drawn) [Example A269, N-(3-(3-(2,6-dioxopiperidin-3-yl)-1-methyl-1H-indazol-5-yl)prop-2-yn-1-yl)-5-(8-(7-isopropyl-1,3-dimethyl-2-oxo-2,3-dihydro-1H-benzo[d]imidazol-5-yl)iso-quinolin-3-yl)-3-methylpicolinamide]	> 80	1 to 9.9	10 to 99	> 80
CC(C)c1cc(N2CCN(C)c3cc(-c4ccc(C(=O)NCC#Cc5cccc(NC6CCC(=O)NC6=O)c5)nc4)ncc32)cc2c1n(C)c(=O)n2C (stereo not drawn) [Example A270, N-(3-(3-((2,6-dioxopiperidin-3-yl)amino)phenyl)prop-2-yn-1-yl)-5-(4-(7-isopropyl-1,3-dimethyl-2-oxo-2,3-dihydro-1H-benzo[d]imidazol-5-yl)-1-methyl-1,2,3,4-tetrahydro-pyrido[3,4-b]pyrazin-7-yl)picolinamide]	> 80	< 1	1 to 9.9	60 to 79
Cn1c(=O)n(C)c2c(N3CCC(C)(O)CC3)cc(-c3cccc4cc(-c5ccc(C(=O)NCC#Cc6cccc(NC7CCC(=O)NC7=O)c6)nc5)ncc34)cc21 (stereo not drawn) [Example A271, N-(3-(3-((2,6-dioxopiperidin-3-yl)amino)phenyl)prop-2-yn-1-yl)-5-(8-(7-(4-hydroxy-4-methylpiperidin-1-yl)-1,3-dimethyl-2-oxo-2,3-dihydro-1H-benzo[d]imidazol-5-yl)isoquinolin-3-yl)picolinamide]	> 80	< 1	1 to 9.9	60 to 79

Results, then the compound that gave them:

Dmax [1] [%]	DC50 [1] [nM]	DC50 [2] [nM]	Dmax [2] [%]	SMILES
60 to 79	1 to 9.9	> 1000	< 20	CCc1cc(-c2cccc3cc(-c4ccc(C(=O)NCC#Cc5ccc6ncn(C7CCC(=O)NC7=O)c6c5)nc4)ncc23)c2cc(C)c(=O)n(C)c2c1 (stereo not drawn) [Example B2, N-(3-(1-(2,6-Dioxopiperidin-3-yl)-1H-benzo[d]imidazol-6-yl)prop-2-yn-1-yl)-5-(8-(7-ethyl-1,3-dimethyl-2-oxo-1,2-dihydroquinolin-5-yl)isoquinolin-3-yl)picolinamide]
60 to 79	10 to 99	100 to 999	40 to 59	CCc1cc(-c2cccc3cc(-c4ccc(C(=O)NCC#Cc5cccc(CC6CCC(=O)NC6=O)c5)nc4)ncc23)c2cc(C)c(=O)n(C)c2c1 (stereo not drawn) [Example B4, N-(3-(3-((2,6-Dioxopiperidin-3-yl)methyl)phenyl)prop-2-yn-1-yl)-5-(8-(7-ethyl-1,3-dimethyl-2-oxo-1,2-dihydroquinolin-5-yl)isoquinolin-3-yl)picolinamide]
> 80	1 to 9.9	> 1000	< 20	CCc1cc(-c2cccc3cc(-c4ccc(C(=O)NCC#Cc5ccc6cnn(C7CCC(=O)NC7=O)c6c5)nc4)ncc23)c2cc(C)c(=O)n(C)c2c1 (stereo not drawn) [Example B5, N-(3-(1-(2,6-Dioxopiperidin-3-yl)-1H-indazol-6-yl)prop-2-yn-1-yl)-5-(8-(7-ethyl-1,3-dimethyl-2-oxo-1,2-dihydroquinolin-5-yl)isoquinolin-3-yl)picolinamide]
20 to 39	1 to 9.9	> 1000	< 20	CCc1cc(-c2cccc3cc(-c4ccc(C(=O)NCC#Cc5cc(NC6CCC(=O)NC6=O)nn5C)nc4)ncc23)c2cc(C)c(=O)n(C)c2c1 (stereo not drawn) [Example B7, N-(3-(3-((2,6-Dioxopiperidin-3-yl)amino)-1-methyl-1H-pyrazol-5-yl)prop-2-yn-1-yl)-5-(8-(7-ethyl-1,3-dimethyl-2-oxo-1,2-dihydroquinolin-5-yl)isoquinolin-3-yl)picolinamide]
> 80	1 to 9.9	10 to 99	40 to 59	CCc1cc(-c2cccc3cc(-c4ccc(C(=O)NCC#Cc5ccc6c(c5)n(C5CCC(=O)NC5=O)c(=O)n6C)nc4)ncc23)c2cc(C)c(=O)n(C)c2c1 (stereo not drawn) [Example B8, N-(3-(3-(2,6-Dioxopiperidin-3-yl)-1-methyl-2-oxo-2,3-dihydro-1H-benzo[d]imidazol-5-yl)prop-2-yn-1-yl)-5-(8-(7-ethyl-1,3-dimethyl-2-oxo-1,2-dihydroquinolin-5-yl)isoquinolin-3-yl)picolinamide]
